From patent US20250114345A1, “COMPOUNDS AND COMPOSITIONS AS CBP/P300 DEGRADERS AND USES THEREOF” (Oncopia Therapeutics, Inc. d/b/a/ SK Life Science Labs, priority 2023, published 2025)

What was measured:
[1] = target: T1, CBP (Homo sapiens, UniProt Q92793); assay: CBP degradation, HiBit technology in A549 CBP HiBit cells (24 h); type: cell-based; details: 24 hrs post treatment
T1 construct: host or cells: A549 CBP HiBit cells
Description: p300 and CBP degradation potency and Dmax were determined using in cell western (ICW) assay technology in H1299 cells or HiBit technology in A549 HiBit cells.
A549 P300 HiBit and A549 CBP HiBit cells were plated in separate 384-well, TC treated, white-opaque, flat-bottomed microplate. Cells were plated at a cell density of 0.2×10^4 cells per well in assay media comprised of F-12K, 10% heat inactivated FBS, and 1% penicillin/streptomycin. Assay microplates containing HiBit cells were placed in a 37° C., 5% CO2, tissue culture incubator and left to equilibrate overnight. The next day cells were treated with serial dilutions of test compound made up of 10 mM stock solutions in DMSO. 384-Well plates containing treated cells were then placed back into a 37° C., 5% CO2, tissue culture incubator. Assay microplates containing A549 P300 HiBit cells were incubated for 2 hrs post treatment before P300 destruction was assessed, while microplates containing A549 CBP HiBit cells were incubated for 24 hrs post treatment before CBP destruction was determined. On the day of each assay time point, microplates were removed from the tissue culture incubator and prepared HiBit Lytic detection buffer (Promega, cat #N3O40) was added to each plate. Plates were covered with aluminum foil and incubated for ten minutes at room temperature on an orbital shaker. After incubation, luminescent signal of each plate was measured using the Envision instrument (Perkin Elmer).

[2] = target: T2, p300 (Homo sapiens, UniProt Q09472); assay: P300 degradation, HiBit technology in A549 P300 HiBit cells (2 h); type: cell-based; details: 2 hrs post treatment; for Dmax: A549, A549 P300 HiBit cells; for DC50: A549 P300 HiBit cells
T2 construct: host or cells: A549 P300 HiBit cells
T2 sequence (Q09472 whole entry): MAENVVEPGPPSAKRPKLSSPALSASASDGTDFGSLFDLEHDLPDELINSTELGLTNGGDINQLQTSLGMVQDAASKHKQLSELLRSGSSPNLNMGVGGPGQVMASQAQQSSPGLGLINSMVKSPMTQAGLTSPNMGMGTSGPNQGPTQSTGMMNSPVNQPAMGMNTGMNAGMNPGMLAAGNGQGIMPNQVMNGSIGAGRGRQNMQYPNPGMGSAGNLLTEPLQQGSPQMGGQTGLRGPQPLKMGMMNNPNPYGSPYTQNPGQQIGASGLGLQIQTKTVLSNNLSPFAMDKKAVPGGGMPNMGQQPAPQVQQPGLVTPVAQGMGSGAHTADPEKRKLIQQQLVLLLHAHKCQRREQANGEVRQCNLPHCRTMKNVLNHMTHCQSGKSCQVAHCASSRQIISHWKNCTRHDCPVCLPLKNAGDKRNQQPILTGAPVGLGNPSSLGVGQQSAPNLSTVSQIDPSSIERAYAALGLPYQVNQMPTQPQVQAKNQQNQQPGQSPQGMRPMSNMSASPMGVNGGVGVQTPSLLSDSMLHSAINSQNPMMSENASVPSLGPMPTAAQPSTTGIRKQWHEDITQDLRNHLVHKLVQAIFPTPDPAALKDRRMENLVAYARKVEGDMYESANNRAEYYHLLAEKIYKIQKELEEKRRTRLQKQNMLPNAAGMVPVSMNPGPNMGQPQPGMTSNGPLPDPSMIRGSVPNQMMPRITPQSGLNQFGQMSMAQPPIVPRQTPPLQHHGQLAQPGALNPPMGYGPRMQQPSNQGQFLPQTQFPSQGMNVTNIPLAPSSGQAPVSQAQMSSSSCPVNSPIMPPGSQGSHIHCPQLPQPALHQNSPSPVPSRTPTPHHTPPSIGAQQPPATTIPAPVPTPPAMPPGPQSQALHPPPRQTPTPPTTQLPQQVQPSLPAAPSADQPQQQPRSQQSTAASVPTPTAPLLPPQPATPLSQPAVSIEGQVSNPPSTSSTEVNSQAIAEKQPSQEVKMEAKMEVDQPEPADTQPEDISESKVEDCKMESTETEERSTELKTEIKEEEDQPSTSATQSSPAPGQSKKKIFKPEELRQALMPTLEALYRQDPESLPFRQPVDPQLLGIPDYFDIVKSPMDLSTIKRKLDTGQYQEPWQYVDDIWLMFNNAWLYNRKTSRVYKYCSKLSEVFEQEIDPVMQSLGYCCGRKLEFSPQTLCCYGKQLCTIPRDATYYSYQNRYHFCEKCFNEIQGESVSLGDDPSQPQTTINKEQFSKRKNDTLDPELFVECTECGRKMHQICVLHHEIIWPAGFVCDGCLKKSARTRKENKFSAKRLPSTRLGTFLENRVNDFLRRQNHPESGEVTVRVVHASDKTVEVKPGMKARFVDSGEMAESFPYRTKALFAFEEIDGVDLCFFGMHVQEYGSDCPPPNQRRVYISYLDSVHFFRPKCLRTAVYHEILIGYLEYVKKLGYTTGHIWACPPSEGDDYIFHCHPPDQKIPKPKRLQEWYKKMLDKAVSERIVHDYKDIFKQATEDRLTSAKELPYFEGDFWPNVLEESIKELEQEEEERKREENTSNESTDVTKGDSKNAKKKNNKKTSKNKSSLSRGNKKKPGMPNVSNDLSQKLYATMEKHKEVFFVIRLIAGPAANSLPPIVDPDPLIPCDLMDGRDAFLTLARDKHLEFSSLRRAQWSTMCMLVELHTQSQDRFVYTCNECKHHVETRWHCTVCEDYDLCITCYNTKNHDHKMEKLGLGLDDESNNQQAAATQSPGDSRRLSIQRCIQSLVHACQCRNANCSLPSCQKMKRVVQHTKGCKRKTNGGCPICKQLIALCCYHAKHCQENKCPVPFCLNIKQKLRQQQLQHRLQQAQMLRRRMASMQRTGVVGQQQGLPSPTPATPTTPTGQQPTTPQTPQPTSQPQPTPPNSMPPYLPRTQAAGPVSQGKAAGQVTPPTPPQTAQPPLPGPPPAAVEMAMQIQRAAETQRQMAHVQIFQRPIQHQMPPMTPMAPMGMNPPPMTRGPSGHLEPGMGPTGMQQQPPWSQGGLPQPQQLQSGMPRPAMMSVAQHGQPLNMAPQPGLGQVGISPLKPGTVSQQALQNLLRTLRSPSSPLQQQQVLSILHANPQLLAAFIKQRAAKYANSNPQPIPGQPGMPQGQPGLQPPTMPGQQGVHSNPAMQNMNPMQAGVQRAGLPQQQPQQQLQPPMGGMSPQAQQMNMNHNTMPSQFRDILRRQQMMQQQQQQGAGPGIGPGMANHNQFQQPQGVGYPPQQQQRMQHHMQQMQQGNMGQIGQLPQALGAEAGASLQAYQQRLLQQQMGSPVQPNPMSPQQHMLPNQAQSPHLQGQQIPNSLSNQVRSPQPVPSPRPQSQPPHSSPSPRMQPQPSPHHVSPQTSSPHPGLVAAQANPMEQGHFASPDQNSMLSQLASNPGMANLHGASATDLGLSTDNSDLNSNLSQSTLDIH
Outline: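 Degradation potency and Dmax came from HiBiT luminescence in tagged A549 cells treated with serially diluted compound (DMSO stocks at 10 mM) after overnight equilibration in F-12K with 10% heat-inactivated FBS.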

T1 sequence (Q92793 whole entry): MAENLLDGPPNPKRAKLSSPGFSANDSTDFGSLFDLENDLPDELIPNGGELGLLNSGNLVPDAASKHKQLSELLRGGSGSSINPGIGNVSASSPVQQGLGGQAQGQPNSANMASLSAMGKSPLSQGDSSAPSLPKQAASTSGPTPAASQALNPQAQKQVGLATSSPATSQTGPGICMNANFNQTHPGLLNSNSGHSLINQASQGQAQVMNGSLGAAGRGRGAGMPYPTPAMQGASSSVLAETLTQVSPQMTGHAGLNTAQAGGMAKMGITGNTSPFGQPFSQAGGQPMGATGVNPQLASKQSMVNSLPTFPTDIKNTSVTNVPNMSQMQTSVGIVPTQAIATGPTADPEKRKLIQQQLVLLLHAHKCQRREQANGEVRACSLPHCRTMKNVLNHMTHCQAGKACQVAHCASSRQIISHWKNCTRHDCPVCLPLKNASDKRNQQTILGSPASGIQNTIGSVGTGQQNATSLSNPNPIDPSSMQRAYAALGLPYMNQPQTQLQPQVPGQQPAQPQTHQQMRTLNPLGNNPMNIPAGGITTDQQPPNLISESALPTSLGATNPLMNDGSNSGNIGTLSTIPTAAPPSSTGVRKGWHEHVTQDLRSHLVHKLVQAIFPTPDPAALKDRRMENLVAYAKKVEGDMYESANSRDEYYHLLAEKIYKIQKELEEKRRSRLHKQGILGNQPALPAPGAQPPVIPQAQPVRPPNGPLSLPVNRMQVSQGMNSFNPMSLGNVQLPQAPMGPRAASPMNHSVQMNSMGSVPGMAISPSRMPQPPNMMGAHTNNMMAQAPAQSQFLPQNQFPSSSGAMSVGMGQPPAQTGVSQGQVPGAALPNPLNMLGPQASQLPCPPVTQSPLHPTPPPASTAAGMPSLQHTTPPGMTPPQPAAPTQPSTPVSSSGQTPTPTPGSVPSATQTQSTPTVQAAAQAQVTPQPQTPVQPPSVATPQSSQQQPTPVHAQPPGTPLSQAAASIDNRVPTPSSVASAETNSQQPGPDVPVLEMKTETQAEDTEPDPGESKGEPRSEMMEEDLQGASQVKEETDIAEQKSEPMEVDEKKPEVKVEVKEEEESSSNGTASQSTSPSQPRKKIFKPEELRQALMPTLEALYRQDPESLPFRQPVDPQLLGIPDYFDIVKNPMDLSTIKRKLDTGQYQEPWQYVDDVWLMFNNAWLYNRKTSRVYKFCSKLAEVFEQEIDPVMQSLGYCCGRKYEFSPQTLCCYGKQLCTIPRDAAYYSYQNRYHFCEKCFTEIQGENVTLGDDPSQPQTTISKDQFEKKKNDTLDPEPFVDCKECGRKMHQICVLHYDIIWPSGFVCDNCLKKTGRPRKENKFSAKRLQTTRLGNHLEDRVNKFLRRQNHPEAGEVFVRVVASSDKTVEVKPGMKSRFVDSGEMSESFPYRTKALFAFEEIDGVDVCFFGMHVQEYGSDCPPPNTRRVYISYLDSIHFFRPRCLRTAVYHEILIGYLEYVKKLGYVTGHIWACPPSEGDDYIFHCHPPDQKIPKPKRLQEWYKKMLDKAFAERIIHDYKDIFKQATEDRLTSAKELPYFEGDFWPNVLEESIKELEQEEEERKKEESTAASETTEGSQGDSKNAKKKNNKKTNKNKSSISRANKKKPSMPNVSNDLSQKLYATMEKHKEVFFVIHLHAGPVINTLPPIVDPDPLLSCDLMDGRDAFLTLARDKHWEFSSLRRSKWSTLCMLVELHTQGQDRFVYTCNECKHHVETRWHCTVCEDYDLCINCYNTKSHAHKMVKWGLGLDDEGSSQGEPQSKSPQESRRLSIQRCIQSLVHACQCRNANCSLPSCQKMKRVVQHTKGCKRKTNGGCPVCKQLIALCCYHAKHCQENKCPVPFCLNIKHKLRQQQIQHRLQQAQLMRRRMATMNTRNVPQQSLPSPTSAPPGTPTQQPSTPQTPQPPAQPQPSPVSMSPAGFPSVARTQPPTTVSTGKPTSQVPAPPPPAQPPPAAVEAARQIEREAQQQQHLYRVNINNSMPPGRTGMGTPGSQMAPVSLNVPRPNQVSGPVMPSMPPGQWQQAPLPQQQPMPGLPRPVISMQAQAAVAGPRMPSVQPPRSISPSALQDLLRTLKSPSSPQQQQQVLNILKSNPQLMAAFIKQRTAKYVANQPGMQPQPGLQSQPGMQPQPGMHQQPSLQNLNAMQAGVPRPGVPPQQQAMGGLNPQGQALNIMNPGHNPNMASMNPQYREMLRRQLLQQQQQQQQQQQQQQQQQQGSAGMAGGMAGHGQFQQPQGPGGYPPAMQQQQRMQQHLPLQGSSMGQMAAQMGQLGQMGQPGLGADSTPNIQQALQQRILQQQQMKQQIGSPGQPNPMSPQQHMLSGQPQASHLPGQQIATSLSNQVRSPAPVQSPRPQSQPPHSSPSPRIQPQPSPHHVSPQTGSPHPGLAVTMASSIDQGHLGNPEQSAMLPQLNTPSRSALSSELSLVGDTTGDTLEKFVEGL

SMILES | DC50 [1] | Dmax [1] | Dmax [2] | DC50 [2]
CC(C)c1cc(-c2cccc3cc(-c4ccc(C(=O)NCC#Cc5ccc6cnn(C7CCC(=O)NC7=O)c6c5F)nc4)ncc23)cc2c1n(C)c(=O)n2C (centres unmarked) [Example A1, N-(3-(1-(2,6-Dioxopiperidin-3-yl)-7-fluoro-1H-indazol-6-yl)prop-2-yn-1-yl)-5-(8-(7-isopropyl-1,3-dimethyl-2-oxo-2,3-dihydro-1H-benzo[d]imidazol-5-yl)isoquinolin-3-yl)picolinamide] | 10 to 99 nM | 40 to 59% | > 80% | 1 to 9.9 nM
CC(C)c1cc(-c2cccc3cc(-c4ccc(C(=O)NCC#Cc5cccc(NC67CC(C6)C(=O)NC7=O)c5)nc4)ncc23)cc2c1n(C)c(=O)n2C [Example A2, N-(3-(3-((2,4-Dioxo-3-azabicyclo[3.1.1]heptan-1-yl)amino)phenyl)prop-2-yn-1-yl)-5-(8-(7-isopropyl-1,3-dimethyl-2-oxo-2,3-dihydro-1H-benzo[d]imidazol-5-yl)isoquinolin-3-yl)picolinamide] | > 1000 nM | < 20% | > 80% | 10 to 99 nM
CC(C)c1cc(-c2cccc3cc(-c4ccc(C(=O)NCC#Cc5ccc6nnn(C7CCC(=O)NC7=O)c6c5)nc4)ncc23)cc2c1n(C)c(=O)n2C (centres unmarked) [Example A3, N-(3-(1-(2,6-Dioxopiperidin-3-yl)-1H-benzo[d][1,2,3]triazol-6-yl)prop-2-yn-1-yl)-5-(8-(7-isopropyl-1,3-dimethyl-2-oxo-2,3-dihydro-1H-benzo[d]imidazol-5-yl)isoquinolin-3-yl)picolinamide] | > 1000 nM | < 20% | > 80% | < 1 nM
CC(C)c1cc(-c2cccc3cc(-c4ccc(C(=O)NCC#Cc5ccc6c(c5)c(C5CCC(=O)NC5=O)nn6C)nc4)ncc23)cc2c1n(C)c(=O)n2C (centres unmarked) [Example A5, N-(3-(3-(2,6-Dioxopiperidin-3-yl)-1-methyl-1H-indazol-5-yl)prop-2-yn-1-yl)-5-(8-(7-isopropyl-1,3-dimethyl-2-oxo-2,3-dihydro-1H-benzo[d]imidazol-5-yl)isoquinolin-3-yl)picolinamide] | 10 to 99 nM | > 80% | > 80% | 1 to 9.9 nM
CC(C)c1cc(-c2cccc3cc(-c4ccc(C(=O)NCC#Cc5ccc6ccnc(C7CCC(=O)NC7=O)c6c5)nc4)ncc23)cc2c1n(C)c(=O)n2C (centres unmarked) [Example A10, N-(3-(1-(2,6-Dioxopiperidin-3-yl)isoquinolin-7-yl)prop-2-yn-1-yl)-5-(8-(7-isopropyl-1,3-dimethyl-2-oxo-2,3-dihydro-1H-benzo[d]imidazol-5-yl)isoquinolin-3-yl)picolinamide] | > 1000 nM | < 20% | 60 to 79% | 10 to 99 nM
Cc1cc(-c2cc3cccc(-c4cc(C(C)C)c5c(c4)n(C)c(=O)n5C)c3cn2)cnc1C(=O)NCC#Cc1ccc2occ(C3CCC(=O)NC3=O)c2c1 (centres unmarked) [Example A35, N-(3-(3-(2,6-Dioxopiperidin-3-yl)benzofuran-5-yl)prop-2-yn-1-yl)-5-(8-(7-isopropyl-1,3-dimethyl-2-oxo-2,3-dihydro-1H-benzo[d]imidazol-5-yl)isoquinolin-3-yl)-3-methylpicolinamide] | 10 to 99 nM | 20 to 39% |  | 
CC(C)c1cc(-c2cccc3cc(-c4ccc(C(=O)NCC#Cc5ccc6c(c5)n(C)c(=O)n6C5CCC(=O)NC5=O)nc4)ncc23)cc2c1n(C)c(=O)n2C (centres unmarked) [Example A36, N-(3-(1-(2,6-Dioxopiperidin-3-yl)-3-methyl-2-oxo-2,3-dihydro-1H-benzo[d]imidazol-5-yl)prop-2-yn-1-yl)-5-(8-(7-isopropyl-1,3-dimethyl-2-oxo-2,3-dihydro-1H-benzo[d]imidazol-5-yl)isoquinolin-3-yl)picolinamide] | > 1000 nM | < 20% |  | 
COc1cc(N2CCOc3cc(-c4ccc(C(=O)NCC#Cc5ccc6occ(C7CCC(=O)NC7=O)c6c5)nc4)c(F)cc32)c2cc(C)c(=O)n(C)c2c1 (centres unmarked) [Example B147, N-(3-(3-(2,6-dioxopiperidin-3-yl)benzofuran-5-yl)prop-2-yn-1-yl)-5-(6-fluoro-4-(7-methoxy-1,3-dimethyl-2-oxo-1,2-dihydro-quinolin-5-yl)-3,4-dihydro-2H-benzo[b][1,4]oxazin-7-yl)picolinamide] |  |  | > 80% | 1 to 9.9 nM
CCc1cc(N2CCOc3cc(-c4ccc(C(=O)NCC#Cc5ccc6occ(C7CCC(=O)NC7=O)c6c5)nc4)c(F)cc32)c2cc(C)c(=O)n(C)c2c1 (centres unmarked) [Example B149, N-(3-(3-(2,6-dioxopiperidin-3-yl)benzofuran-5-yl)prop-2-yn-1-yl)-5-(4-(7-ethyl-1,3-dimethyl-2-oxo-1,2-dihydroquinolin-5-yl)-6-fluoro-3,4-dihydro-2H-benzo[b][1,4]oxazin-7-yl)picolinamide] |  |  | > 80% | 1 to 9.9 nM
Cc1cc2c(N3CCCc4nc(-c5ccc(C(=O)NCC#Cc6ccc7occ(C8CCC(=O)NC8=O)c7c6)nc5)ncc43)cc(C3CCN(C(=O)C4CCOCC4)CC3)cc2n(C)c1=O (centres unmarked) [Example B150, 5-(5-(1,3-dimethyl-2-oxo-7-(1-(tetrahydro-2H-pyran-4-carbonyl)piperidin-4-yl)-1,2-dihydro-quinolin-5-yl)-5,6,7,8-tetrahydropyrido[3,2-d]pyrimidin-2-yl)-N-(3-(3-(2,6-dioxopiperidin-3-yl)benzofuran-5-yl)prop-2-yn-1-yl) picolinamide] |  |  | 60 to 79% | 1 to 9.9 nM
Cc1cc(N2CCCc3nc(-c4ccc(C(=O)NCC#Cc5ccc6occ(C7CCC(=O)NC7=O)c6c5)nc4)ncc32)c2cc(C)c(=O)n(C)c2c1 (centres unmarked) [Example B151, N-(3-(3-(2,6-dioxopiperidin-3-yl)benzofuran-5-yl)prop-2-yn-1-yl)-5-(5-(1,3,7-trimethyl-2-oxo-1,2-dihydroquinolin-5-yl)-5,6,7,8-tetrahydro-pyrido[3,2-d]pyrimidin-2-yl)picolinamide] |  |  | > 80% | 1 to 9.9 nM
CCc1cc(N(C)c2ccn(-c3cnc(C(=O)NCC#Cc4cccc(NC5CCC(=O)NC5=O)c4)c(C)c3)c(=O)c2)c2cc(C)c(=O)n(C)c2c1 (centres unmarked) [Example B152, N-(3-(3-((2,6-dioxopiperidin-3-yl)amino)phenyl)prop-2-yn-1-yl)-4-((7-ethyl-1,3-dimethyl-2-oxo-1,2-dihydroquinolin-5-yl) (methyl)amino)-5′-methyl-2-oxo-2H-[1,3′-bipyridine]-6′-carboxamide] |  |  | > 80% | 1 to 9.9 nM
Cc1cc2c(N3CCCc4nc(-c5cnc(C(=O)NCC#Cc6ccc7occ(C8CCC(=O)NC8=O)c7c6)c(Cl)c5)ncc43)cccc2n(C)c1=O (centres unmarked) [Example B155, 3-chloro-5-(5-(1,3-dimethyl-2-oxo-1,2-dihydroquinolin-5-yl)-5,6,7,8-tetrahydro-pyrido[3,2-d]pyrimidin-2-yl)-N-(3-(3-(2,6-dioxopiperidin-3-yl)benzofuran-5-yl)prop-2-yn-1-yl)picolinamide] |  |  | > 80% | 1 to 9.9 nM
Cc1cc2c(N3CCCc4nc(-c5ccc(C(=O)NCC#Cc6cc7c(C8CCC(=O)NC8=O)cccc7o6)nc5)ncc43)cc(C3CCC(F)(F)CC3)nc2n(C)c1=O (centres unmarked) [Example B158, 5-(5-(2-(4,4-difluorocyclohexyl)-6,8-dimethyl-7-oxo-7,8-dihydro-1,8-naphthyridin-4-yl)-5,6,7,8-tetrahydropyrido[3,2-d]pyrimidin-2-yl)-N-(3-(4-(2,6-dioxopiperidin-3-yl)benzofuran-2-yl)prop-2-yn-1-yl)picolinamide] |  |  | > 80% | 10 to 99 nM
Cc1cc2c(N3CCCc4nc(-c5ccc(C(=O)NCC#Cc6cc7c(C8CCC(=O)NC8=O)cccn7n6)nc5)ncc43)cc(C3CCOCC3)cc2n(C)c1=O (centres unmarked) [Example B170, 5-(5-(1,3-dimethyl-2-oxo-7-(tetrahydro-2H-pyran-4-yl)-1,2-dihydroquinolin-5-yl)-5,6,7,8-tetrahydropyrido[3,2-d]pyrimidin-2-yl)-N-(3-(4-(2,6-dioxopiperidin-3-yl)pyrazolo[1,5-a]pyridin-2-yl)prop-2-yn-1-yl)picolinamide] |  |  | 20 to 39% | 1 to 9.9 nM
Cc1cc2c(N3CCCc4nc(-c5ccc(C(=O)NCC#Cc6cc7c(C8CCC(=O)NC8=O)cccc7o6)nc5)ncc43)cc(C3CC3)cc2n(C)c1=O (centres unmarked) [Example B171, 5-(5-(7-cyclopropyl-1,3-dimethyl-2-oxo-1,2-dihydroquinolin-5-yl)-5,6,7,8-tetrahydropyrido [3,2-d]pyrimidin-2-yl)-N-(3-(4-(2,6-dioxo-piperidin-3-yl)benzofuran-2-yl)prop-2-yn-1-yl)picolinamide] |  |  | > 80% | 1 to 9.9 nM
Cc1cc2c(N3CCCc4nc(-c5ccc(C(=O)NCC#Cc6cc7c(C8CCC(=O)NC8=O)cccc7o6)nc5)ncc43)nc(N3CC4CC4C3)cc2n(C)c1=O (centres unmarked) [Example B172, 5-(5-(7-(3-azabicyclo[3.1.0]hexan-3-yl)-1,3-dimethyl-2-oxo-1,2-dihydro-1,6-naphthyridin-5-yl)-5,6,7,8-tetrahydropyrido[3,2-d]pyrimidin-2-yl)-N-(3-(4-(2,6-dioxopiperidin-3-yl)benzofuran-2-yl)prop-2-yn-1-yl)picolinamide] |  |  | > 80% | 10 to 99 nM
